From patent US20090253634A1, “Methods and Compositions for the Treatment of Gastrointestinal Disorders” (MICROBIA, INC., priority 2005, published 2009)
Where two headings read alike, the source gives them in different places. Bridge positions count the residues as written; N and C are the ends. Peptide text beside a SMILES is read from it.

Legend:
[1] = test system: bowel habits; experiment: single oral dose study of bowel habits in humans; type: in vivo
Protocol: Single doses of 30, 100, 300, 1000 or 3000 μg of chemically synthesized SEQ ID NO:3 were given to 30 healthy males and postmenopausal females. At each dose level (100 μg was done twice) SEQ ID NO:3 or placebo (vehicle) was administered orally in 5.0 mL 50 mM phosphate buffer (pH 6.0) plus 3×20 mL water rinses and 175 mL water after at least a 10-hour fast. In each dosing group, subjects were randomized to receive either placebo (1 subject) or SEQ ID NO:3 (3-4 subjects). Bowel habits (including Bristol Stool Form Scale score (BSFS; FIG. 14a), stool frequency, and stool weight) were evaluated for each collected bowel movement 48 hours prior to dose and up to approximately 48 hours postdose.

[2] = oral bioavailability in rats, radioimmunoassay (RIA) detection; conditions: female, CD, rat, in vivo
Protocol: Oral bioavailability was also determined using a radioimmunoassay (RIA) detection method. Female CD-1 mice (Charles River, Wilmington, Mass.) weighing approximately 25g (7-8 weeks old) or female CD rats (Charles River, Wilmington, Mass.) weighing approximately 153 g were included in this study. Monoclonal antibody, 20C1 (Brandwein et al. 1985 Infect Immun. 47:242-246), which recognizes SEQ ID NO:7 and ^125I labeled-SEQ ID NO:7, a labeled tracer, were used in these experiments. The labeled tracer was purified by HPLC using a Waters C-18u Bondapak® column (25 cm) previously equilibrated with 10 mM ammonium acetate pH 5.8. A gradient from 0 to 25% acetonitrile was applied to the column in 60 min, followed by isocratic elution at 25% acetonitrile for another 20 min. This method separated two monoiodinated forms from each other and from unlabeled precursor (Thompson et al. 1985 Anal Biochem. 148:26-36). […] The labeled tracer bad a specific activity of 2200 Ci/mmol. The tracer was stored in aliquots at −20° C. Animals were fasted overnight before administration of compounds. Animals received SEQ ID NO:3 (rats—10 mg/kg; mice 8 mg/kg) or vehicle alone (20 mM Tris-HCl, ph7.5) intravenously or orally. Blood was drawn from all dosed animals by retro-orbital eye bleeding at specific intervals and test compound levels were analyzed by radioimmunoassay (RIA). SEQ ID NO:3 was extracted from the serum or plasma using Amersham Biosciences Amprep C18 columns (100 mg). Samples (80 μL) were first diluted to 0.5 mL with start buffer (8% methanol, 0.095% TFA in water) and applied to C18 columns previously conditioned with 1 mL methanol and equilibrated with 2 mL of start buffer. […] Radioactivity was measured in a LS 6500 scintillation counter (Beckman-Coulter). The binding efficiency is defined as the percent radioactivity in the B0 sample compared to the input counts. The percent bound in each sample was calculated by the equation: […]
A standard curve was prepared by plotting % B/B0 as a function of the log SEQ ID NO:3 concentration. […] Oral Bioavailabilty (F) is calculated using the equation: […]

[3] = test system: ligated loops of intestine; experiment: ligated intestinal loop model in rats; type: in vivo, CD rats; conditions: center loop of the rat small intestine; 5 μg
Protocol: The loop was roughly centered and was a length of 1-3 cm. The loops were injected with 100 μl of either SEQ ID NO:3 (5 μg) or vehicle (20 mM Tris, pH 7.5 or Krebs Ringer, 10 mM Glucose, HEPES buffer (KRGH)). Following a recovery time of 90 minutes the loops were excised. Weights were recorded for each loop before and after removal of the fluid contained therein. The length of each loop was also recorded. A weight to length ratio (W/L) for each loop was calculated to determine the effects of SEQ ID NO:3 on secretion.
To determine the effect of SEQ ID NO:3 on cGMP activity, fluid from the loop was collected in ice-cold trichloracetic acid (TCA) and stored at −80° C. for use in an assay to measure cGMP levels in the fluid. Intestinal fluid samples were TCA extracted, and cyclic GMP was measured by EIA according to procedures outlined in the Cayman Chemical Cyclic GMP EIA kit (Cayman Chemical, Ann Arbor, Mich.) to determine cyclic GMP levels in the intestinal fluid of the mouse in the presence of either SEQ ID NO:3 or vehicle.
In the case of the rat, however four loops of intestine were surgically ligated. The first three loops were distributed equally in the small intestine and the fourth loop was located in colon. Loops were 1 to 3 centimeters, and were injected with 200 μL of either SEQ ID NO:3 (5 μg) or vehicle (Krebs Ringer, 10 mM glucose, HEPES buffer (KRGH)).

[4] = target: T1, intestinal GC-C receptor (Homo sapiens, UniProt P25092); experiment: GC-C receptor activity assay (cyclic GMP) in T84 cells; type: cell-based; conditions: chemically synthesized peptides, cyclic GMP by EIA
T1 construct: monolayers of T84 cells in 24-well plates; host or cells: T84 human colon carcinoma cells
Protocol: The ability of SEQ ID NO:5, SEQ ID NO:4, SEQ ID NO:3, and SEQ ID NO:6 to activate the intestinal GC-C receptor was assessed in an assay employing the T84 human colon carcinoma cell line (American Type Culture Collection (Bethesda, Md.)). For the assays cells were grown to confluency in 24-well culture plates with a 1:1 mixture of Ham's F12 medium and Dulbecco's modified Eagle's medium (DMEM), supplemented with 5% fetal calf serum and were used at between passages 54 and 60.
Briefly, monolayers of T84 cells in 24-well plates were washed twice with 1 ml/well DMEM, then incubated at 37° C. for 10 min with 0.45 ml DMEM containing 1 mM isobutylmethylxanthine (IBMX), a cyclic nucleotide phosphodiesterase inhibitor, Test peptides (50 μl) were then added and incubated for 30 minutes at 37° C. The media was aspirated and the reaction was then terminated by the addition of ice cold 0.5 ml of 0.1N HCl. The samples were held on ice for 20 minutes and then evaporated to dryness using a heat gun or vacuum centrifugation.

T1 sequence (P25092 24-1073): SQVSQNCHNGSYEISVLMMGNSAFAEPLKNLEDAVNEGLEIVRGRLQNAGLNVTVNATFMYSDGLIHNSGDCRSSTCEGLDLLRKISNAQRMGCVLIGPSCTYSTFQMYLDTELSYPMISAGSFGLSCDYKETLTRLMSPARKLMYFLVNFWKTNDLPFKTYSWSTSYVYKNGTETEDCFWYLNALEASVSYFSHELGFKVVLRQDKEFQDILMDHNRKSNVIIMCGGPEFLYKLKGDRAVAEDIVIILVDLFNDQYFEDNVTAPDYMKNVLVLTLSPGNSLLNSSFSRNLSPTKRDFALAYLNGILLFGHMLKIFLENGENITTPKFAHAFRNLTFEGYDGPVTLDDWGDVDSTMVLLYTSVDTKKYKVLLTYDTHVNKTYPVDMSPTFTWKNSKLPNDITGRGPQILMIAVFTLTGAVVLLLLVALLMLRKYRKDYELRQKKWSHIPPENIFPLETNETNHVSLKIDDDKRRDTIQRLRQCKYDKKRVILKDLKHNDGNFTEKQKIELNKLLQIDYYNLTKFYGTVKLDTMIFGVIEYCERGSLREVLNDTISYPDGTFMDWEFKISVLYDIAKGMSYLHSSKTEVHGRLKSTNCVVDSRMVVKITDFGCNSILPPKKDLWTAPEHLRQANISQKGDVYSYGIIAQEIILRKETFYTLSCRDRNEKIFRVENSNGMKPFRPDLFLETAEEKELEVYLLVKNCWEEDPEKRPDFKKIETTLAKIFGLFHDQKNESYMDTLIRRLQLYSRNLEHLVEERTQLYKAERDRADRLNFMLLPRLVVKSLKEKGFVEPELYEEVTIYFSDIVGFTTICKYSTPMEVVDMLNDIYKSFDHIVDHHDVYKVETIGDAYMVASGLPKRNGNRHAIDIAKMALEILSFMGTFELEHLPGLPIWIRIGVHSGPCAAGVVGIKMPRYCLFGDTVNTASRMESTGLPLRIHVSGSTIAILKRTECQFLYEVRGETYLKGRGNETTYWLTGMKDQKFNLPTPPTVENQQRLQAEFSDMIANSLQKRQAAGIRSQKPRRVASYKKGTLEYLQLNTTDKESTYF

C[C@@H]1NC(=O)[C@@H]2CCCN2C(=O)[C@H](CC(N)=O)NC(=O)[C@@H]2CSSC[C@H](N)C(=O)N[C@H]3CSSC[C@H](NC1=O)C(=O)N[C@@H]([C@@H](C)O)C(=O)NCC(=O)N[C@H](C(=O)N[C@@H](Cc1ccc(O)cc1)C(=O)O)CSSC[C@H](NC(=O)[C@H](Cc1ccc(O)cc1)NC(=O)[C@H](CCC(=O)O)NC3=O)C(=O)N2 [SEQ ID NO:3] (H-CCEYCCNPACTGCY-OH; disulfide 1-6, 2-10, 5-13; N-terminus and C-terminus assumed)
percent of subjects with a 2-point or greater increase in BSFS score ([1]; 1000 μg dose group, mean pre-dose compared to peak 48 hours post-dose): highest percent of subjects
BSFS post-dose scores, relation to dose ([1]; single oral dose 30-3000 μg): Higher BSFS post-dose scores correlated with a higher dose
maximum BSFS (Bristol Stool Form Scale) score ([1]; single oral dose 30-3000 μg, healthy males and postmenopausal females): increase in maximum BSFS score
AUC ([2]; 10 mg/kg intravenous, read-out: AUCi.v.,(0-6h) (converted)): 23700 ng·h/mL
AUC ([2]; 10 mg/kg oral, read-out: AUCp.o.,(0-6h) (converted)): 48.3 ng·h/mL
bioavailability ([2]; oral, 10 mg/kg, over 6 hours): 0.2%
cGMP levels in ligated loop [3]: increases
secretion in ligated loop [3]: increases
activity in GC-C receptor activity assay [4]: activity comparable to SEQ ID NO:4
